From patent publication US20100035941A1, “METHODS FOR INCREASING BLOOD FLOW AND/OR PROMOTING TISSUE REGENERATION” (priority 2006, published 2010)
Values joined by “and” are separate entries in the source; they are usually repeats but may differ in a detail not shown here. Identical values can stand only once. Like-named read-outs stand apart in the source and are kept apart here.

What was measured:
[1] = test system: nucleated cells per ml of blood; details: average of 5 donors, s.c. 80 μg/kg
Experimental: Five healthy human volunteers having initial white blood cell counts of 4,500-7,500 cells/mm^3 were used in the study. […] Blood samples were obtained via catheter prior to the dose, and at various times up to 24 hours after dosing.
All progenitor cell results are based on the scoring of 3 culture plates per assay per point.

[2] = test system: progenitors in DNA synthesis (S) phase of the cell cycle; details: for BFU-E Cycling Status of Progenitors / CFU-GEMM Cycling Status of Progenitors / CFU-GM Cycling Status of Progenitors: % progenitors in S phase; for BFU-E Cycling Status of Progenitors / CFU-GEMM Cycling Status of Progenitors / CFU-GM Cycling Status of Progenitors / AGAR Culture CFU-GM Cycling Status of Progenitors: s.c. 80 μg/kg
Experimental: For the progenitor cell numbers and cycling status, the numbers of CFU-GM, BFU-E and CFU-GEMM in methylcellulose cultures by stimulation of the cells with 1 Unit (U)/ml recombinant human (rhu) erythropoietin, 100 U/ml rhu granulocyte-macrophage colony stimulating factor (GM-CSF), 100 U/ml rhu interleukin-3 (IL-3) and 50 ng/ml rhu steel factor (SLF=stem cell factor (SCF)). The CFU-GM were also evaluated in agar cultures stimulated with 100 U/ml rhu GM-CSF and 50 ng/ml rhu SLF. For both types of assays, colonies were scored after 14 day incubation in a humidified atmosphere with 5% CO2 and lowered (5%) O2 tension. Cell cycling status of progenitors was measured using a high specific activity tritiated thymidine kill technique as previously described (Broxmeyer, H. E., et al., Exp. Hematol. (1989) 17:455-459).

[3] = test system: circulating CD34+ progenitor/stem cells; details: Phase 1 study; single dose of 80 μg/kg; 6 hour time point; cited from earlier work
[4] = individual donors P1-P5, T = 1 hour
[5] = individual donors P1-P5, T = 3 hours
[6] = individual donors P1-P5, T = 6 hours
[7] = individual donors P1-P5, T = 9 hours
[8] = individual donors P1-P5, T = 24 hours

## c1cc(CN2CCCNCCNCCCNCC2)ccc1CN1CCCNCCNCCCNCC1 [AMD3100, 1,1′-[1,4-phenylene-bis(methylene)]-bis-1,4,8,11-tetraazacyclotetradecane]
[1]; T = 1 hour
  Fold Change Compared to TIME = 0, nucleated cellularity PBL-LD, MEAN: 1.86
  Fold Change Compared to TIME = 0, nucleated cellularity PBL-US, MEAN: 1.69
  nucleated cellularity PBL-LD, % CHG: 86.2%
  nucleated cellularity PBL-US, % CHG: 68.6%
[1]; T = 3 hours
  Fold Change Compared to TIME = 0, nucleated cellularity PBL-LD, MEAN: 2.86
  Fold Change Compared to TIME = 0, nucleated cellularity PBL-US, MEAN: 2.80
  nucleated cellularity PBL-LD, % CHG: 185.6%
  nucleated cellularity PBL-US, % CHG: 180.2%
[1]; T = 6 hours
  Fold Change Compared to TIME = 0, nucleated cellularity PBL-LD, MEAN: 3.66
  Fold Change Compared to TIME = 0, nucleated cellularity PBL-US, MEAN: 3.26
  nucleated cellularity PBL-LD, % CHG: 266.3%
  nucleated cellularity PBL-US, % CHG: 225.8%
[1]; T = 9 hours
  Fold Change Compared to TIME = 0, nucleated cellularity PBL-LD, MEAN: 3.64
  Fold Change Compared to TIME = 0, nucleated cellularity PBL-US, MEAN: 3.09
  nucleated cellularity PBL-LD, % CHG: 264.3%
  nucleated cellularity PBL-US, % CHG: 209.4%
[1]; T = 24 hours
  Fold Change Compared to TIME = 0, nucleated cellularity PBL-LD, MEAN: 1.05
  Fold Change Compared to TIME = 0, nucleated cellularity PBL-US, MEAN: 1.07
  nucleated cellularity PBL-LD, % CHG: 4.6%
  nucleated cellularity PBL-US, % CHG: 7.0%
[2]; [4]
  BFU-E Cycling Status of Progenitors: 3% and 0% (4×)
  CFU-GEMM Cycling Status of Progenitors: 6% and 0% (4×)
  CFU-GM Cycling Status of Progenitors: 1% and 0% (4×)
  AGAR Culture CFU-GM Cycling Status of Progenitors: 3% and 0% (4×)
[2]; [5]
  CFU-GEMM Cycling Status of Progenitors: 0% (4×) and 7%
  AGAR Culture CFU-GM Cycling Status of Progenitors: 0% (4×) and 1%
[2]; [6]
  BFU-E Cycling Status of Progenitors: 0% (4×) and 1%
  CFU-GEMM Cycling Status of Progenitors: 0% (4×) and 8%
  CFU-GM Cycling Status of Progenitors: 0%
  AGAR Culture CFU-GM Cycling Status of Progenitors: 1% and 0% (2×) and 3% (2×)
[2]; [7]
  BFU-E Cycling Status of Progenitors: 0% (4×) and 11%
  CFU-GEMM Cycling Status of Progenitors: 4% and 0% (4×)
  CFU-GM Cycling Status of Progenitors: 2% and 0% (4×)
[2]; [8]
  BFU-E Cycling Status of Progenitors: 2% and 0% (3×) and 3%
  CFU-GEMM Cycling Status of Progenitors: 0%
  CFU-GM Cycling Status of Progenitors: 0% (3×) and 3% and 5%
[2]; individual donors P2-P5, T = 9 hours
  AGAR Culture CFU-GM Cycling Status of Progenitors: 0%
[2]; individual donors P2-P5, T = 24 hours
  AGAR Culture CFU-GM Cycling Status of Progenitors: 0%
[2]; prior to and 1, 3, 6, 9 and 24 hours after injection, human donors
  cycling state of progenitors: slow or non-cycling state
[3]
  peak increase in circulating CD34+ progenitor/stem cells: 6 fold
